From US4613666A, “Neplanocin A derivatives” (Toyo Jozo Kabushiki Kaisha, priority 1980, dated 1986)
In brackets after ≈: the same amount, converted by molar mass.

Experiments:
[1] = tested on: L 5178 Y cells; test: growth-inhibitory activity on mouse lymphoma L 5178 Y cells (MIC); type: cell-based; conditions: 5×10^4 /ml, Fischer's medium with 10% bovine serum, 37° C., 22 hours, phenol red color change, read-out: MIC (minimum inhibitory concentration on cell growth)
Method: The growth-inhibitory activities of compound [I] of the present invention on L 5178 Y cells are shown below. (1) Test method:
A test sample (0.3 ml) dissolved in a medium [bovine serum (10%) in Fischer's medium] is added to a mouse lymphoma L 5178 Y cells suspension (2.7 ml, 5×10^4 /ml cells), and the mixture is incubated at 37° C. for 22 hours. Cell-growth is observed by checking the color change of phenol red in the medium. The minimum inhibitory concentration (MIC) of the substance on cell growth is defined by observing apparent growth inhibition as compared with that of control.

[2] = tested on: plant pathogenic fungi; conditions: earlier applications cited; cited from earlier work
[3] = earlier applications cited; cited from earlier work

Row | SMILES | MIC [1] | inhibitory action for plant pathogenic fungi [2] | antitumor activity [3]
1 | CC(=O)OCC1=C[C@@H](n2cnc3c(N)ncnc32)[C@H](OC(C)=O)[C@@H]1OC(C)=O [2',3',5'-Otriacetyl nephlanocin A, 2',3',5'-O-triacetyl neplanocin A] | 0.8 µg/mL (≈ 2.05 µM) |  | 
2 | O=C(Nc1ncnc2c1ncn2[C@@H]1C=C(COC(=O)c2ccccc2)[C@@H](O)[C@H]1O)c1ccccc1 [N^6,5'-Odibenzoyl neplanocin A, N^6,5'-O-dibenzoyl neplanocin A] | 0.16 µg/mL (≈ 0.339 µM) |  | 
3 | O=C(OCC1=C[C@@H](n2cnc3c(N(C(=O)c4ccccc4)C(=O)c4ccccc4)ncnc32)[C@H](O)[C@@H]1O)c1ccccc1 [N^6,N^6,5'-Otribenzoyl neplanocin A, N^6,N^6 5'-O-tribenzoyl neplanocin A] | 0.16 µg/mL (≈ 0.278 µM) |  | 
4 | Nc1ncnc2c1ncn2[C@@H]1C=C(CO)[C@@H](O)[C@H]1O [Neplanocin A] |  | inhibitory action for plant pathogenic fungi | antitumor activity
5 | O=C(Nc1ncnc2c1ncn2[C@@H]1C=C(CO)[C@@H](O)[C@@H]1I)c1ccccc1 [R1=COPh, R4=I, R5=H, R6=H, N^6-benzoyl-2'-(R)-iodo-2'-deoxy neplanocin A] | 100 µg/mL (≈ 210 µM) |  | 

More lines, main results first:

Row | MIC [1] | SMILES | inhibitory action for plant pathogenic fungi [2] | antitumor activity [3]
6 | 4 µg/mL (≈ 11.4 µM) | Nc1ncnc2c1ncn2[C@@H]1C=C(CO)[C@H]2OC(c3ccccc3)O[C@H]21 (some centres unmarked) [2',3'-Obenzylidene neplanocin A, 2',3'-O-benzylidene neplanocin A] |  | 
7 | 4 µg/mL (≈ 12.3 µM) | Nc1ncnc2c1ncn2[C@@H]1C=C(CO)[C@@H](O)[C@@H]1Br [R1=H, R4=Br, R5=H, R6=H, 2'-(R)-bromo-2'-deoxy neplanocin A] |  | 
8 | 100 µg/mL (≈ 273 µM) | CC(=O)OCC1=C[C@@H](n2cnc3c(N)ncnc32)[C@@H](Cl)[C@@H]1OC(C)=O [R1=H, R4=Cl, R5=Ac, R6=Ac, 2'-(R)-chloro-2'-deoxy-3 '-O,5'-O-diacetyl neplanocin A] |  | 
9 | 20 µg/mL (≈ 71 µM) | Nc1ncnc2c1ncn2[C@@H]1C=C(CO)[C@@H](O)[C@@H]1Cl [R1=H, R4=Cl, R5=H, R6=H, 2'-(R)-chloro-2'-deoxy neplanocin A] |  | 
10 | 4 µg/mL (≈ 16.2 µM) | Nc1ncnc2c1ncn2[C@@H]1C=C(CO)[C@@H](O)C1 [R1=H, R4=H, R5=H, R6=H, 2'-deoxy neplanocin A] |  | 
11 | 4 µg/mL (≈ 10.7 µM) | Nc1ncnc2c1ncn2[C@@H]1C=C(CO)[C@@H](O)[C@@H]1I [R1=H, R4=I, R5=H, R6=H, 2'-(R)-iodo-2'-deoxy neplanocin A] |  | 
12 | 100 µg/mL (≈ 347 µM) | [N-]=[N+]=N[C@H]1[C@H](O)C(CO)=C[C@H]1n1cnc2c(N)ncnc21 [R1=H, R4=N3, R5=H, R6=H, 2'-(R)-azide-2'-deoxyneplanocin A] |  | 
13 | 4 µg/mL | Nc1ncnc2c1ncn2[C@@H]1C=C(CO)[C@@H](O)[C@@H]1N [R1=H, R4=NH2, R5=H, R6=H, 2'-(R)-amino-2'-deoxy neplanocin A acetate] |  | 
